These results are taken from patent publication US20260061085A1, “CYCLIC PEPTIDE AND PREPARATION METHOD THEREFOR, AND COMPLEX COMPRISING SAME AND USE THEREOF” (HEXIN (SUZHOU) PHARMACEUTICAL TECHNOLOGY CO., LTD., priority 2022, published 2026).

Square brackets hold non-standard residues; d marks the D form. Peptide text beside a SMILES is read from it. NMeN = CN[C@@H](CC(N)=O)C(=O)O; Orn = NCCC[C@H](N)C(=O)O; Dab = NCC[C@H](N)C(=O)O; Sar = CNCC(=O)O

The nature of data set [1]: Stability by in vitro constant temperature (37° C.) incubation in mouse plasma, LC-MS/MS. The class given is in vitro ADME. The procedure:
(§1) The experiment was carried out by using an in vitro constant temperature (37° C.) incubation method to study the stability of the cyclic peptide APN21 of Example 21 and the cyclic peptide KE5 of Comparative Example 1 in mouse plasma or PBS (1.0 μg/mL). The two cyclic peptides were dissolved in 1 mL of mouse […], respectively, and incubated at 37° C. for 0 h, 0.5 h, 1 h, 4 h, 24 h, and 48 h, and a percentage of drug remaining was then measured and determined. PBS was used as a negative control group. Peak areas of the drug and an internal standard were measured using an LC-MS/MS method, and ratios of the peaks were used instead of the drug concentration for calculation.

Data set [2] in a line: Stability by in vitro constant temperature (37° C.) incubation in PBS, LC-MS/MS. The class given is physicochemical. The method, then: as §1
Data set [3] has as its system HT-1080 tumor-bearing mice. The data set can be described thus: Small-animal PET/CT imaging of HT-1080 tumor-bearing mice with CD13 blocking. It counts as in vivo. Particulars: co-injected with unlabeled NGR peptide 15 mg/kg, tail vein, 0.5, 1 and 2 hours after injection, versus unblocked APN21 Group. The procedure: HT-1080 cells were taken from normal NCr nude mice (18-25 g, 4-6 weeks old, n=3), and 2λ10^6 cells were implanted subcutaneously in right shoulders of mice in a mixture of 200 μL phosphate buffer and matrix gel (v/v, 1/1). […] PET/CT and image analysis were performed using a small-animal NovclMedcal PET/CT scanner (Novel Medical Equipment Ltd., Beijing). Maximum tangential and radial half-widths of the scanner in a center of field of view were 1.5 mm, and at an edge of the field of view were 1.8 mm. […] Static PET/CT images were obtained for 15 min at 0.5, 1, and 2 hours after intravenous injection. […] Static PET/CT images were obtained for 15 min at 0.5, 1, and 2 hours after intravenous injection. […] Static PET/CT images were obtained for 15 min at 0.5, 1, and 2 hours after intravenous injection. […] […] PET and CT images were acquired using NMSoft workstation software (Novel Medical Equipment Ltd., Beijing), and data were given as a percentage of injected dose per gram of tissue or organ (ID/g), and were determined through decay correction for each sample (standardized to a known weight of the injected dose).

Another data set deals with HT-1080 cells. The data set can be described thus: Relative cell uptake of Cy3 fluorescent peptides by HT-1080 cells. It counts as cell-based, human. Conditions: Cy3 fluorescent peptide, 37° C. 30 min, multiple of KE5-Cy3 uptake taken as 1.00. The procedure:
The binding affinity of the polypeptides in the examples and comparative examples to an HT-1080 cell line was identified through cell uptake studies.
The human fibrosarcoma cell line HT-1080 was cultured in Dulbecco's Modified Eagle Medium (DMEM) (Gibco) mixed with 10% sterile filtered fetal bovine serum (FBS) and 1% penicillin-streptomycin antibiotic solution. The cell culture was maintained in a controlled environment at 37° C. and 5% CO2, and subculture was performed every 3-4 days. 24 hours prior to the experiment, cells were seeded in a 96-well plate (5000 cells per well) and cultured overnight until the cells adhered to a wall. Before the experiment, cells were washed twice with […] of phosphate-buffered saline (PBS) to remove a growth medium.
Purification is performed through HPLC.
HT-1080 cells were treated with KE5-Cy3 fluorescent peptide of Comparative Example 1.
After incubation at 37° C. for 30 min, the cells were washed twice with PBS, an intracellular fluorescence intensity was measured using a fluorescence microplate reader (with an […]) to evaluate the uptake of KE5-Cy3 fluorescent peptide by HT-1080 cells.
(§2) 10 μL of CCK-8 were added to each group of cells and incubated for 4 h, the cells were then read using a microplate reader (with a wavelength of 490 nm), and errors in fluorescence intensity of each group of cells caused by difference in a number of cells was corrected by CCK-8.
Each group was subjected to the above operation three times to determine an optimal concentration for the uptake of KE5-Cy3 fluorescent peptide by HT-1080 cells.
(§3) HT-1080 cells were treated with the APN-Cy3 fluorescent peptide of each of the Examples, wherein a concentration of each APN-Cy3 fluorescent peptide was an optimal concentration determined by KE5-Cy3 fluorescent peptides of Comparative Example 1 according to the uptake by the HT-1080 cells.
(§4) After incubation at 37° C. for 30 min, the cells were washed twice with PBS, an intracellular fluorescence intensity was measured using a fluorescence microplate reader (with an […]) to evaluate the uptake of APN-Cy3 fluorescent peptide by HT-1080 cells.
A relative cell uptake (RCU) for each APN-Cy3 fluorescent peptide relative to the KE5-Cy3 fluorescent peptide was calculated using the following formula: […]

Data set [4] addresses T1, Aminopeptidase N (APN, also known as CD13) (human, UniProt P15144 2-967).
T1 construct: whole, on cells; The assay itself used HT-1080 cells (endogenous expression, not transfected); also called CD13 protein; CD13 receptor
Description: Cy3 fluorescence uptake by HT-1080 cells, 37 C 30 min, microplate reader, CCK-8 corrected, relative to KE5-Cy3. The procedure:
as §3, §4, §2

Where [5] appears, read: 0.5 h, read-out: percentage of drug remaining.
The mark [6] stands for this setting: 1 h, read-out: percentage of drug remaining.
The mark [7] stands for this setting: 4 h, read-out: percentage of drug remaining.
[8] abbreviates: 24 h, read-out: percentage of drug remaining.
[9] abbreviates: 48 h, read-out: percentage of drug remaining.

T1 sequence (P15144 2-967): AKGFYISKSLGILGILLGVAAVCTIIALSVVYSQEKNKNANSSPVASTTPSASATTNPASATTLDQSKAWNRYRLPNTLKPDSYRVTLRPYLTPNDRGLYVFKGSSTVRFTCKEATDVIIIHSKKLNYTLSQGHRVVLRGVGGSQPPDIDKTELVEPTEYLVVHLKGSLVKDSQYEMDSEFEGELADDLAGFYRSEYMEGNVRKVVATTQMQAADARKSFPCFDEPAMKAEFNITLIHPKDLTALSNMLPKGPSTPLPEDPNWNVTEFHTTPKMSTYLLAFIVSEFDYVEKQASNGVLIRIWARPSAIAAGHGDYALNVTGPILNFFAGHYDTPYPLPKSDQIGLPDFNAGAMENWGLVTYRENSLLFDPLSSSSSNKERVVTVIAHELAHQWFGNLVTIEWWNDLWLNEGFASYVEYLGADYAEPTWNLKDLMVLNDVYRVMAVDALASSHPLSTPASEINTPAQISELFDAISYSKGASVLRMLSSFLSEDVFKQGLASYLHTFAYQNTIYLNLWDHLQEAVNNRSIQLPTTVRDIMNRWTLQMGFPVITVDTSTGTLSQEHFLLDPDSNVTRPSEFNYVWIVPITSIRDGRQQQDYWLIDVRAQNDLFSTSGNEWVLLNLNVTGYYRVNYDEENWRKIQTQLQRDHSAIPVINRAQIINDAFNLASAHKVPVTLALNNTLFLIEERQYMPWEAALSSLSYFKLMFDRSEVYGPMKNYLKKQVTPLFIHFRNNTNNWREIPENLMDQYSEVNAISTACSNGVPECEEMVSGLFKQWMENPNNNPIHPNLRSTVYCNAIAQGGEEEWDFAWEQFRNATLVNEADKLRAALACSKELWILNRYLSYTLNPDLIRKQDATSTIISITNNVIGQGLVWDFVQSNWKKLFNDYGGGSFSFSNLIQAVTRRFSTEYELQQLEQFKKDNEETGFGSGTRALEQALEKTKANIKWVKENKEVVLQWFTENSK

In the case of `N=C(N)NCCC[C@@H]1NC(=O)CNC(=O)[C@H](CC(N)=O)NC(=O)[C@H](CCCCN)NC(=O)[C@H](CCC(=O)O)NC1=O` [Comparative Example 1, cyclo(NGREK), reference compound] (cyclo(EKNGR)), the “percentage of drug remaining” value in data set [1] (0 h) and in data set [2] (0 h) was 100% in each case. Further, the amount remaining at 0.5 h, 1 μg/mL in data set [1] (setting [5]) worked out at 94.8%; in data set [2] (setting [5]) it was 99.1%. In addition, the fraction remaining at 1 h, 1 μg/mL in data set [1] (setting [6]) amounted to 89.4%; in data set [2] (setting [6]), 96.6%. In addition, the share remaining at 4 h, 1 μg/mL came to 80.2% in data set [1] (setting [7]) and 91.4% in data set [2] (setting [7]). Also, the share remaining at 24 h, 1 μg/mL in data set [1] (setting [8]) came to 39.8%; in data set [2] (setting [8]) it was 73.4%. In addition, the fraction remaining at 48 h, 1 μg/mL in data set [1] (setting [9]) is 12.4%; in data set [2] (setting [9]), 42.7%.

For “^68Ga-APN21-Bn-SCN-NOTA: ^68Ga-labelled conjugate of cyclic peptide APN21 (Example 21) with NOTA-Bn-SCN chelator (cyclo(N[Sar]RTKY); not fully specified (residue 5); also: 68Ga-NOTA-Bn-SCN chelator conjugated, site not given here)”, in data set [3], the “PET/CT signal intensity (tumor uptake) in APN21-Blocking Group” value is “significantly weaker than that of the unblocked APN21 group”.

Regarding “cyclo(NGRDK) (cyclic; circular) [Example 1]”, the “RCU (relative cell uptake)” value in the data set with HT-1080 cells turned out to be 0.65.

With “cyclo(NGRTCE) (cyclic; circular) [Example 10]”, the “RCU (relative cell uptake)” value in the data set on HT-1080 cells worked out at 0.77.

As to “cyclo(NGRTCF) (cyclic; circular) [Example 12]”, the “RCU (relative cell uptake)” value in the data set on HT-1080 cells stood at 0.82.

Consider “cyclo(NGRTCG) (cyclic; circular) [Example 13]”, for which, in the data set with HT-1080 cells, the “RCU (relative cell uptake)” value turned out to be 0.49.

For “cyclo(NGRTCV) (cyclic; circular) [Example 11]”, the “RCU (relative cell uptake)” value in the data set with HT-1080 cells came out at 0.92.

As for “cyclo(NGRTCY) (cyclic; circular) [Example 14]”, in the data set on HT-1080 cells, the “RCU (relative cell uptake)” value was found to be 1.05.

“cyclo(NGRTKF) (cyclic; circular) [Example 7]”: the “RCU (relative cell uptake)” value with HT-1080 cells came out at 0.56.

With “cyclo(NGRTKG) (cyclic; circular) [Example 8]”, the “RCU (relative cell uptake)” value with HT-1080 cells is listed as 1.14.

Consider “cyclo(NGRTKf) (cyclo(NGRTK[dF]); SMILES C[C@@H](O)[C@@H]1NC(=O)[C@H](CCCNC(=N)N)NC(=O)CNC(=O)[C@H](CC(N)=O)NC(=O)[C@@H](Cc2ccccc2)NC(=O)[C@H](CCCCN)NC1=O) [Example 17]”, for which, in the data set on HT-1080 cells, the “RCU (relative cell uptake)” value stood at 0.49.

Take “cyclo(NSarRTDabY) (cyclo(N[Sar]RT[Dab]Y); SMILES C[C@@H](O)[C@@H]1NC(=O)[C@H](CCCNC(=N)N)NC(=O)CN(C)C(=O)[C@H](CC(N)=O)NC(=O)[C@H](Cc2ccc(O)cc2)NC(=O)[C@H](CCN)NC1=O) [Example 24]”: the “RCU (relative cell uptake)” value with HT-1080 cells is 0.57.

On to “cyclo(NSarRTOrnY) (cyclo(N[Sar]RT[Orn]Y); SMILES C[C@@H](O)[C@@H]1NC(=O)[C@H](CCCNC(=N)N)NC(=O)CN(C)C(=O)[C@H](CC(N)=O)NC(=O)[C@H](Cc2ccc(O)cc2)NC(=O)[C@H](CCCN)NC1=O) [Example 23]”, for which, in the data set on HT-1080 cells, the “RCU (relative cell uptake)” value came to 1.20.

As for “cyclo(NSarRTcY) (cyclo(N[Sar]RT[dC]Y); SMILES C[C@@H](O)[C@@H]1NC(=O)[C@H](CCCNC(=N)N)NC(=O)CN(C)C(=O)[C@H](CC(N)=O)NC(=O)[C@H](Cc2ccc(O)cc2)NC(=O)[C@@H](CS)NC1=O) [Example 25]”, the “RCU (relative cell uptake)” value in the data set with HT-1080 cells is 0.72.

“cyclo(NmeGRTDabY) (cyclo([NMeN]GRT[Dab]Y); SMILES C[C@@H](O)[C@@H]1NC(=O)[C@H](CCCNC(=N)N)NC(=O)CNC(=O)[C@H](CC(N)=O)N(C)C(=O)[C@H](Cc2ccc(O)cc2)NC(=O)[C@H](CCN)NC1=O) [Example 26]”: in the data set with HT-1080 cells, the “RCU (relative cell uptake)” value is 0.41.

Take “cyclo(NmeGRTKY) (cyclo([NMeN]GRTKY); SMILES C[C@@H](O)[C@@H]1NC(=O)[C@H](CCCNC(=N)N)NC(=O)CNC(=O)[C@H](CC(N)=O)N(C)C(=O)[C@H](Cc2ccc(O)cc2)NC(=O)[C@H](CCCCN)NC1=O) [Example 20]”: the “RCU (relative cell uptake)” value in the data set on HT-1080 cells is on record as 0.78.

Turning to “cyclo(NmeGRTOrnY) (cyclo([NMeN]GRT[Orn]Y); SMILES C[C@@H](O)[C@@H]1NC(=O)[C@H](CCCNC(=N)N)NC(=O)CNC(=O)[C@H](CC(N)=O)N(C)C(=O)[C@H](Cc2ccc(O)cc2)NC(=O)[C@H](CCCN)NC1=O) [Example 27]”, the “RCU (relative cell uptake)” value in the data set with HT-1080 cells was determined as 0.37.

On to “cyclo(NmeGRTcY) (cyclo([NMeN]GRT[dC]Y)) [Example 28]”, for which the “RCU (relative cell uptake)” value with HT-1080 cells turned out to be 0.62.

B1: APN21-Cy3 fluorescent peptide (Example 21) (peptide)
peptide: cyclo(N[Sar]RTKY)
modifications: not fully specified (residue 5); also: Cy3 dye attached via Cy3-NHS, site not given here
notes: also called cyclo(NSarRTKY)
For B1, the “RCU (relative cell uptake, KE5-Cy3 = 1.00)” value in data set [4] was 5.68 fold of KE5-Cy3.
